Common to all, as to test: relative viability (nuclei count vs DMSO), 5 days (fraction); higher = more cells survive
Compound in experiment [1]: CS(=O)(=O)N1CCN(Cc2cc3nc(-c4cccc5[nH]ncc45)nc(N4CCOCC4)c3s2)CC1 [Pictilisib] + Cc1nc(NC(=O)N2CCC[C@H]2C(N)=O)sc1-c1ccnc(C(C)(C)C(F)(F)F)c1 [Alpelisib] (partner 2 µM)
The method in brief: (§1)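 Relative viability was taken as the ratio of nuclei in treated wells to nuclei in vehicle wells. Lung cancer cell lines in 1536-well plates received compounds by pin tool one day after seeding, either one drug alone or a fixed anchor-drug dose plus five library-drug doses (not always all listed) in √10 steps. Nuclei were counted on 4× images after 5 days of treatment, and values are medians of duplicate plates.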

Compound in experiment [2]: NC1(c2ccc(-c3nc4ccn5c(=O)[nH]nc5c4cc3-c3ccccc3)cc2)CCC1 [MK-2206] + CC1(C)CCC(c2ccc(Cl)cc2)=C(CN2CCN(c3ccc(C(=O)NS(=O)(=O)c4ccc(N[C@H](CCN5CCOCC5)CSc5ccccc5)c(S(=O)(=O)C(F)(F)F)c4)cc3)CC2)C1 [Navitoclax] (partner 0.5 µM)
The method in brief: as §1

Compound in experiment [3]: NC1(c2ccc(-c3nc4ccn5c(=O)[nH]nc5c4cc3-c3ccccc3)cc2)CCC1 [MK-2206] + Cc1nc(Nc2ncc(C(=O)Nc3c(C)cccc3Cl)s2)cc(N2CCN(CCO)CC2)n1 [Dasatinib] (partner 0.075 µM)
Summed up: as §1

Compound in experiment [4]: NC1(c2ccc(-c3nc4ccn5c(=O)[nH]nc5c4cc3-c3ccccc3)cc2)CCC1 [MK-2206] + N=C(N)NC(=N)NCCc1ccccc1 [Phenformin] (partner 250 µM)
The method in brief: as §1

Compound in experiment [5]: NC1(c2ccc(-c3nc4ccn5c(=O)[nH]nc5c4cc3-c3ccccc3)cc2)CCC1 [MK-2206] + Nc1nc2[nH]cc(CCc3ccc(C(=O)N[C@@H](CCC(=O)O)C(=O)O)cc3)c2c(=O)[nH]1 [Pemetrexed] (partner 0.2 µM)
Summed up:
as §1

For the cell line COR-L 105, the relative viability in experiment [1] (first compound 0.02 µM) worked out at 1.08; in experiment [1] (first compound 0.06325 µM), 0.957; in experiment [1] (first compound 0.6325 µM), 0.861; in experiment [1] (first compound 2 µM), 0.692; in experiment [2] (first compound 0.01 µM), 0.82; in experiment [2] (first compound 0.03162 µM), 0.741. Further, the relative viability worked out at 0.815 in experiment [2] (first compound 0.3162 µM); 0.481 in experiment [2] (first compound 1 µM); 0.411 in experiment [3] (first compound 0.01 µM); 0.409 in experiment [3] (first compound 0.03162 µM); 0.305 in experiment [3] (first compound 0.3162 µM); 0.289 in experiment [3] (first compound 1 µM). Moreover, the relative viability is 0.51 in experiment [4] (first compound 0.01 µM); 0.472 in experiment [4] (first compound 0.03162 µM); 0.392 in experiment [4] (first compound 0.3162 µM); 0.489 in experiment [4] (first compound 1 µM); 1.22 in experiment [5] (first compound 0.01 µM); 1.08 in experiment [5] (first compound 0.03162 µM). In addition, the relative viability in experiment [5] (first compound 0.3162 µM) amounted to 1.29; in experiment [5] (first compound 1 µM) it was 1.28.

Consider NCI-H1755, for which the relative viability was found to be 0.924 in experiment [1] (first compound 0.02 µM); 0.939 in experiment [1] (first compound 0.06325 µM); 0.892 in experiment [1] (first compound 0.6325 µM); 0.506 in experiment [1] (first compound 2 µM); 1.02 in experiment [2] (first compound 0.01 µM); 0.985 in experiment [2] (first compound 0.03162 µM). Further, the relative viability in experiment [2] (first compound 0.3162 µM) turned out to be 0.829; in experiment [2] (first compound 1 µM), 0.895; in experiment [3] (first compound 0.01 µM), 0.443; in experiment [3] (first compound 0.03162 µM), 0.424; in experiment [3] (first compound 0.3162 µM), 0.406; in experiment [3] (first compound 1 µM), 0.35. Also, the relative viability in experiment [4] (first compound 0.01 µM) stood at 0.68; in experiment [4] (first compound 0.03162 µM), 0.632; in experiment [4] (first compound 0.3162 µM), 0.551; in experiment [4] (first compound 1 µM) it was 0.587; in experiment [5] (first compound 0.01 µM), 0.405; in experiment [5] (first compound 0.03162 µM), 0.404. Besides, the relative viability in experiment [5] (first compound 0.3162 µM) was determined as 0.353; in experiment [5] (first compound 1 µM), 0.374.

On to NCI-H2085, for which the relative viability in experiment [1] (first compound 0.02 µM) stood at 1.01; in experiment [1] (first compound 0.06325 µM) it was 0.959; in experiment [1] (first compound 0.6325 µM), 0.74; in experiment [1] (first compound 2 µM), 0.419; in experiment [2] (first compound 0.01 µM), 1.09; in experiment [2] (first compound 0.03162 µM), 1.19. For the same cell line, the relative viability worked out at 0.902 in experiment [2] (first compound 0.3162 µM); 0.825 in experiment [2] (first compound 1 µM); 0.257 in experiment [3] (first compound 0.01 µM); 0.234 in experiment [3] (first compound 0.03162 µM); 0.253 in experiment [3] (first compound 0.3162 µM); 0.242 in experiment [3] (first compound 1 µM). Besides, the relative viability was 0.713 in experiment [4] (first compound 0.01 µM); 0.834 in experiment [4] (first compound 0.03162 µM); 0.681 in experiment [4] (first compound 0.3162 µM); 0.59 in experiment [4] (first compound 1 µM); 0.866 in experiment [5] (first compound 0.01 µM); 1.02 in experiment [5] (first compound 0.03162 µM). The relative viability turned out to be 0.953 in experiment [5] (first compound 0.3162 µM) and 0.841 in experiment [5] (first compound 1 µM).

For NCI-H2023, the relative viability came to 0.546 in experiment [1] (first compound 0.02 µM); 0.488 in experiment [1] (first compound 0.06325 µM); 0.445 in experiment [1] (first compound 0.6325 µM); 0.32 in experiment [1] (first compound 2 µM); 0.985 in experiment [2] (first compound 0.01 µM); 1.06 in experiment [2] (first compound 0.03162 µM). Further, the relative viability in experiment [2] (first compound 0.3162 µM) came out at 0.895; in experiment [2] (first compound 1 µM) it was 0.716; in experiment [3] (first compound 0.01 µM), 0.6; in experiment [3] (first compound 0.03162 µM), 0.542; in experiment [3] (first compound 0.3162 µM), 0.443; in experiment [3] (first compound 1 µM), 0.362. The relative viability was found to be 0.398 in experiment [4] (first compound 0.01 µM); 0.416 in experiment [4] (first compound 0.03162 µM); 0.343 in experiment [4] (first compound 0.3162 µM); 0.271 in experiment [4] (first compound 1 µM); 0.266 in experiment [5] (first compound 0.01 µM); 0.195 in experiment [5] (first compound 0.03162 µM). In addition, the relative viability stood at 0.25 in experiment [5] (first compound 0.3162 µM) and 0.209 in experiment [5] (first compound 1 µM).

Regarding HOP-62, the relative viability turned out to be 1.09 in experiment [1] (first compound 0.02 µM); 0.854 in experiment [1] (first compound 0.06325 µM); 0.788 in experiment [1] (first compound 0.6325 µM); 0.935 in experiment [1] (first compound 2 µM); 0.909 in experiment [2] (first compound 0.01 µM); 1.24 in experiment [2] (first compound 0.03162 µM). Further, the relative viability was determined as 1.02 in experiment [2] (first compound 0.3162 µM); 1.1 in experiment [2] (first compound 1 µM); 0.592 in experiment [3] (first compound 0.01 µM); 0.73 in experiment [3] (first compound 0.03162 µM); 0.624 in experiment [3] (first compound 0.3162 µM); 0.665 in experiment [3] (first compound 1 µM). Besides, the relative viability in experiment [4] (first compound 0.01 µM) came to 0.62; in experiment [4] (first compound 0.03162 µM), 0.725; in experiment [4] (first compound 0.3162 µM), 0.701; in experiment [4] (first compound 1 µM), 0.699; in experiment [5] (first compound 0.01 µM) it was 0.381; in experiment [5] (first compound 0.03162 µM) it was 0.272. In addition, the results for the relative viability in experiment [5] (first compound 0.3162 µM) and in experiment [5] (first compound 1 µM) were 0.273 and 0.375, respectively.

The values above are taken from the supplement of paper PMC10307832.
